Measured values: patent publication US20250176599A1, “FLAVOR COMPOSITION AND FOOD AND BEVERAGE” (TAKASAGO INTERNATIONAL CORPORATION, priority 2021, published 2025)

Experiments:
[1] = Sensory evaluation of aqueous solution I containing (E)-2-nonenal 1 ppb: off-flavor intensity and masking component intensity; details: average panel score
Method: (§1) In ion-exchanged water, each degradation component was added to achieve the concentrations listed in Table 1, and aqueous solutions I to VI containing these degradation components were prepared.
(§2) For the aforementioned aqueous solutions containing degradation components, nootkatone was added at the concentrations listed in Table 2 to confirm the intensity of the off-flavor (masking effect) in each sample and the intensity of the masking component itself (the impact on the flavor of the food and/or beverage itself).
(§3) The test was conducted as follows. Eight experienced panelists were selected to conduct a sensory evaluation. The intensity of the off-flavor of the aqueous solution containing the degradation components derived from unsaturated fatty acids, without added masking components, was set as “Evaluation: 4.” The ion-exchanged water free of any degradation components was set as “Evaluation: 0.” The intensity of the off-flavor (masking effect) of each sample was then relatively evaluated according to the following evaluation criteria.
(§4) • Off-flavor is strongly sensed: 4 points • Off-flavor is sensed: 3 points • Off-flavor is slightly sensed: 2 points • Off-flavor is barely sensed: 1 point • Off-flavor is not sensed at all: 0 points
(§5) Also, the intensity of the masking components (impact on the flavor of the food and/or beverage itself) was absolutely evaluated according to the following evaluation criteria.
(§6) • Masking component is strongly sensed: 4 points • Masking component is sensed: 3 points • Masking component is slightly sensed: 2 points • Masking component is barely sensed: 1 point • Masking component is not sensed at all: 0 points

[2] = Sensory evaluation of aqueous solution II containing (E)-2-octenal 10 ppb: off-flavor intensity and masking component intensity; details: average panel score
Method: as §1, §2, §3, §4, §5, §6

[3] = Sensory evaluation of aqueous solution III containing 1-octen-3-one 1 ppb: off-flavor intensity and masking component intensity; details: average panel score
Method: as §1, §2, §3, §4, §5, §6

[4] = Sensory evaluation of aqueous solution IV containing 1,5-octadien-3-one 100 ppt: off-flavor intensity and masking component intensity; details: aqueous solution IV, average panel score
Method: as §1, §2, §3, §4, §5, §6

[5] = Sensory evaluation of aqueous solution V containing 1-octen-3-ol 10 ppb: off-flavor intensity and masking component intensity; details: average panel score
Method: as §1, §2, §3, §4, §5, §6

[6] = Sensory evaluation of aqueous solution VI containing 1,5-octadien-3-ol 10 ppb: off-flavor intensity and masking component intensity; details: aqueous solution VI, average panel score
Method: as §1, §2, §3, §4, §5, §6

[7] = Overall conclusion of the sensory evaluation across aqueous solutions I to VI
Method: as §1, §2, §3, §4, §5, §6

CC1CCC(C(C)C)C(OCC(O)CO)C1 (stereo not shown) [3-menthoxypropan-1,2-diol]
Masking Component Intensity ([1]; 1 ppb added): 0.3
Off-Flavor Intensity ([1]; 1 ppb added): 3.4
Masking Component Intensity ([1]; 1 ppm added): 1.1
Off-Flavor Intensity ([1]; 1 ppm added): 2.9
Masking Component Intensity ([1]; 10 ppb added): 0.6
Off-Flavor Intensity ([1]; 10 ppb added): 3.1
Masking Component Intensity ([1]; 10 ppm added): 1.9
Off-Flavor Intensity ([1]; 10 ppm added): 2.6
Masking Component Intensity ([1]; 50 ppm added): 2.5
Off-Flavor Intensity ([1]; 50 ppm added): 1.9
Masking Component Intensity ([1]; 100 ppb added): 0.8
Off-Flavor Intensity ([1]; 100 ppb added): 3.1
Masking Component Intensity ([1]; 100 ppm added): 3.3
Off-Flavor Intensity ([1]; 100 ppm added): 1.8
Masking Component Intensity ([1]; 100 ppt added): 0.3
Off-Flavor Intensity ([1]; 100 ppt added): 3.4
Masking Component Intensity ([2]; 1 ppb added): 0.4
Off-Flavor Intensity ([2]; 1 ppb added): 3.0
Masking Component Intensity ([2]; 1 ppm added): 1.4
Off-Flavor Intensity ([2]; 1 ppm added): 2.3
Masking Component Intensity ([2]; 10 ppb added): 0.5
Off-Flavor Intensity ([2]; 10 ppb added): 3.0
Masking Component Intensity ([2]; 10 ppm added): 2.0
Off-Flavor Intensity ([2]; 10 ppm added): 1.8
Masking Component Intensity ([2]; 50 ppm added): 3.1
Off-Flavor Intensity ([2]; 50 ppm added): 1.5
Masking Component Intensity ([2]; 100 ppb added): 1.0
Off-Flavor Intensity ([2]; 100 ppb added): 2.8
Masking Component Intensity ([2]; 100 ppm added): 4.0
Off-Flavor Intensity ([2]; 100 ppm added): 1.1
Masking Component Intensity ([2]; 100 ppt added): 0.4
Off-Flavor Intensity ([2]; 100 ppt added): 3.1
Masking Component Intensity ([3]; 1 ppb added): 0.5
Off-Flavor Intensity ([3]; 1 ppb added): 3.3
Masking Component Intensity ([3]; 1 ppm added): 1.5
Off-Flavor Intensity ([3]; 1 ppm added): 2.5
Masking Component Intensity ([3]; 10 ppb added): 0.6
Off-Flavor Intensity ([3]; 10 ppb added): 2.9
Masking Component Intensity ([3]; 10 ppm added): 2.1
Off-Flavor Intensity ([3]; 10 ppm added): 2.3
Masking Component Intensity ([3]; 50 ppm added): 3.0
Off-Flavor Intensity ([3]; 50 ppm added): 1.9
Masking Component Intensity ([3]; 100 ppb added): 1.1
Off-Flavor Intensity ([3]; 100 ppb added): 2.8
Masking Component Intensity ([3]; 100 ppm added): 3.8
Off-Flavor Intensity ([3]; 100 ppm added): 1.6
Masking Component Intensity ([3]; 100 ppt added): 0.1
Off-Flavor Intensity ([3]; 100 ppt added): 3.3
Masking Component Intensity ([4]; 1 ppb added): 0.0
Off-Flavor Intensity ([4]; 1 ppb added): 3.8
Masking Component Intensity ([4]; 1 ppm added): 1.0
Off-Flavor Intensity ([4]; 1 ppm added): 3.3
Masking Component Intensity ([4]; 10 ppb added): 0.1
Off-Flavor Intensity ([4]; 10 ppb added): 3.5
Masking Component Intensity ([4]; 10 ppm added): 1.5
Off-Flavor Intensity ([4]; 10 ppm added): 2.9
Masking Component Intensity ([4]; 50 ppm added): 2.4
Off-Flavor Intensity ([4]; 50 ppm added): 2.5
Masking Component Intensity ([4]; 100 ppb added): 0.9
Off-Flavor Intensity ([4]; 100 ppb added): 3.5
Masking Component Intensity ([4]; 100 ppm added): 3.0
Off-Flavor Intensity ([4]; 100 ppm added): 2.1
Masking Component Intensity ([4]; 100 ppt added): 0.0
Off-Flavor Intensity ([4]; 100 ppt added): 3.9
Masking Component Intensity ([5]; 1 ppb added): 0.3
Off-Flavor Intensity ([5]; 1 ppb added): 3.1
Masking Component Intensity ([5]; 1 ppm added): 1.4
Off-Flavor Intensity ([5]; 1 ppm added): 2.6
Masking Component Intensity ([5]; 10 ppb added): 0.6
Off-Flavor Intensity ([5]; 10 ppb added): 2.6
Masking Component Intensity ([5]; 10 ppm added): 2.1
Off-Flavor Intensity ([5]; 10 ppm added): 2.0
Masking Component Intensity ([5]; 50 ppm added): 2.0
Off-Flavor Intensity ([5]; 50 ppm added): 1.6
Masking Component Intensity ([5]; 100 ppb added): 1.0
Off-Flavor Intensity ([5]; 100 ppb added): 2.5
Masking Component Intensity ([5]; 100 ppm added): 3.8
Off-Flavor Intensity ([5]; 100 ppm added): 1.4
Masking Component Intensity ([5]; 100 ppt added): 0.3
Off-Flavor Intensity ([5]; 100 ppt added): 3.3
Masking Component Intensity ([6]; 1 ppb added): 0.1
Off-Flavor Intensity ([6]; 1 ppb added): 3.0
Masking Component Intensity ([6]; 1 ppm added): 0.8
Off-Flavor Intensity ([6]; 1 ppm added): 2.6
Masking Component Intensity ([6]; 10 ppb added): 0.4
Off-Flavor Intensity ([6]; 10 ppb added): 3.0
Masking Component Intensity ([6]; 10 ppm added): 2.0
Off-Flavor Intensity ([6]; 10 ppm added): 2.3
Masking Component Intensity ([6]; 50 ppm added): 2.9
Off-Flavor Intensity ([6]; 50 ppm added): 1.9
Masking Component Intensity ([6]; 100 ppb added): 0.4
Off-Flavor Intensity ([6]; 100 ppb added): 3.0
Masking Component Intensity ([6]; 100 ppm added): 3.5
Off-Flavor Intensity ([6]; 100 ppm added): 1.3
Masking Component Intensity ([6]; 100 ppt added): 0.0
Off-Flavor Intensity ([6]; 100 ppt added): 3.0
concentration that masks the off-flavor and does not affect the flavor of the food and/or beverage itself, lower limit [7]: ≥ 100 ppt
concentration that masks the off-flavor and does not affect the flavor of the food and/or beverage itself, upper limit [7]: ≤ 100 ppm

CC(C)C=C(C=O)c1ccccc1 [4-methyl-2-phenyl-2-pentenal]
Masking Component Intensity ([1]; 1 ppb added): 0.5
Off-Flavor Intensity ([1]; 1 ppb added): 2.8
Masking Component Intensity ([1]; 1 ppm added): 1.9
Off-Flavor Intensity ([1]; 1 ppm added): 1.6
Masking Component Intensity ([1]; 5 ppm added): 2.9
Off-Flavor Intensity ([1]; 5 ppm added): 1.1
Masking Component Intensity ([1]; 10 ppb added): 0.9
Off-Flavor Intensity ([1]; 10 ppb added): 2.3
Masking Component Intensity ([1]; 10 ppm added): 3.8
Off-Flavor Intensity ([1]; 10 ppm added): 0.5
Masking Component Intensity ([1]; 50 ppm added): 4.0
Off-Flavor Intensity ([1]; 50 ppm added): 0.3
Masking Component Intensity ([1]; 100 ppb added): 1.4
Off-Flavor Intensity ([1]; 100 ppb added): 1.8
Masking Component Intensity ([1]; 100 ppt added): 0.4
Off-Flavor Intensity ([1]; 100 ppt added): 3.3
Masking Component Intensity ([2]; 1 ppb added): 0.5
Off-Flavor Intensity ([2]; 1 ppb added): 2.8
Masking Component Intensity ([2]; 1 ppm added): 2.1
Off-Flavor Intensity ([2]; 1 ppm added): 1.6
Masking Component Intensity ([2]; 5 ppm added): 2.6
Off-Flavor Intensity ([2]; 5 ppm added): 1.4
Masking Component Intensity ([2]; 10 ppb added): 1.1
Off-Flavor Intensity ([2]; 10 ppb added): 2.5
Masking Component Intensity ([2]; 10 ppm added): 3.4
Off-Flavor Intensity ([2]; 10 ppm added): 1.0
Masking Component Intensity ([2]; 50 ppm added): 3.9
Off-Flavor Intensity ([2]; 50 ppm added): 0.6
Masking Component Intensity ([2]; 100 ppb added): 1.6
Off-Flavor Intensity ([2]; 100 ppb added): 2.0
Masking Component Intensity ([2]; 100 ppt added): 0.4
Off-Flavor Intensity ([2]; 100 ppt added): 3.0
Masking Component Intensity ([3]; 1 ppb added): 0.9
Off-Flavor Intensity ([3]; 1 ppb added): 3.4
Masking Component Intensity ([3]; 1 ppm added): 2.5
Off-Flavor Intensity ([3]; 1 ppm added): 2.1
Masking Component Intensity ([3]; 5 ppm added): 3.0
Off-Flavor Intensity ([3]; 5 ppm added): 1.8
Masking Component Intensity ([3]; 10 ppb added): 1.4
Off-Flavor Intensity ([3]; 10 ppb added): 3.1
Masking Component Intensity ([3]; 10 ppm added): 3.5
Off-Flavor Intensity ([3]; 10 ppm added): 1.6
Masking Component Intensity ([3]; 50 ppm added): 3.8
Off-Flavor Intensity ([3]; 50 ppm added): 1.3
Masking Component Intensity ([3]; 100 ppb added): 1.8
Off-Flavor Intensity ([3]; 100 ppb added): 2.6
Masking Component Intensity ([3]; 100 ppt added): 0.5
Off-Flavor Intensity ([3]; 100 ppt added): 3.6
Masking Component Intensity ([4]; 1 ppb added): 0.4
Off-Flavor Intensity ([4]; 1 ppb added): 3.6
Masking Component Intensity ([4]; 1 ppm added): 1.9
Off-Flavor Intensity ([4]; 1 ppm added): 2.3
Masking Component Intensity ([4]; 5 ppm added): 2.3
Off-Flavor Intensity ([4]; 5 ppm added): 2.0
Masking Component Intensity ([4]; 10 ppb added): 1.0
Off-Flavor Intensity ([4]; 10 ppb added): 3.0
Masking Component Intensity ([4]; 10 ppm added): 3.0
Off-Flavor Intensity ([4]; 10 ppm added): 1.4
Masking Component Intensity ([4]; 50 ppm added): 3.6
Off-Flavor Intensity ([4]; 50 ppm added): 1.0
Masking Component Intensity ([4]; 100 ppb added): 1.4
Off-Flavor Intensity ([4]; 100 ppb added): 2.6
Masking Component Intensity ([4]; 100 ppt added): 0.3
Off-Flavor Intensity ([4]; 100 ppt added): 3.6
Masking Component Intensity ([5]; 1 ppb added): 0.8
Off-Flavor Intensity ([5]; 1 ppb added): 2.3
Masking Component Intensity ([5]; 1 ppm added): 2.4
Off-Flavor Intensity ([5]; 1 ppm added): 1.1
Masking Component Intensity ([5]; 5 ppm added): 2.8
Off-Flavor Intensity ([5]; 5 ppm added): 0.8
Masking Component Intensity ([5]; 10 ppb added): 1.4
Off-Flavor Intensity ([5]; 10 ppb added): 1.8
Masking Component Intensity ([5]; 10 ppm added): 3.5
Off-Flavor Intensity ([5]; 10 ppm added): 0.6
Masking Component Intensity ([5]; 50 ppm added): 3.9
Off-Flavor Intensity ([5]; 50 ppm added): 0.5
Masking Component Intensity ([5]; 100 ppb added): 1.6
Off-Flavor Intensity ([5]; 100 ppb added): 1.6
Masking Component Intensity ([5]; 100 ppt added): 0.6
Off-Flavor Intensity ([5]; 100 ppt added): 2.8
Masking Component Intensity ([6]; 1 ppb added): 0.3
Off-Flavor Intensity ([6]; 1 ppb added): 1.8
Masking Component Intensity ([6]; 1 ppm added): 1.8
Off-Flavor Intensity ([6]; 1 ppm added): 0.9
Masking Component Intensity ([6]; 5 ppm added): 2.4
Off-Flavor Intensity ([6]; 5 ppm added): 0.4
Masking Component Intensity ([6]; 10 ppb added): 0.8
Off-Flavor Intensity ([6]; 10 ppb added): 1.4
Masking Component Intensity ([6]; 10 ppm added): 3.1
Off-Flavor Intensity ([6]; 10 ppm added): 0.4
Masking Component Intensity ([6]; 50 ppm added): 3.5
Off-Flavor Intensity ([6]; 50 ppm added): 0.1
Masking Component Intensity ([6]; 100 ppb added): 1.3
Off-Flavor Intensity ([6]; 100 ppb added): 1.0
Masking Component Intensity ([6]; 100 ppt added): 0.0
Off-Flavor Intensity ([6]; 100 ppt added): 2.1
concentration that masks the off-flavor and does not affect the flavor of the food and/or beverage itself, lower limit [7]: ≥ 100 ppt
concentration that masks the off-flavor and does not affect the flavor of the food and/or beverage itself, upper limit [7]: ≤ 10 ppm
